In US8389523B2, “Substituted quinoxaline and an agrochemical composition thereof” (Kumiai Chemical Industry Co., Ltd., priority 2007, dated 2013):

Experiments:
Type in all cases: in vivo
Parameters in all cases: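 grade 0 to 5 of growth suppression where 5 is 90% or more and 0 below 10%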
[1] = test system: Echinochloa oryzicola Vasing; experiment: Herbicidal effects in paddy field soil treatment (Test Example 1); settings: paddy field soil treatment; 1000 g of the active ingredient per hectare; wettable powder added dropwise on water surface; 21st day after treatment
Procedure, shortened: (§1)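 Sow seeds in puddled, leveled paddy soil; waterlog to 3 cm depth. On the following day apply water-diluted wettable powder onto the water surface (1000 g a.i./ha). Grow in greenhouse and assess herbicidal effect at day 21.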

[2] = test system: Monochoria vaginalis (Burm. f.) Presl var. plantaginea (Roxb.) Solms-Laub.; experiment: as above; settings: paddy field soil treatment; 1000 g of the active ingredient per hectare; wettable powder added dropwise on water surface; 21st day after treatment
Procedure, shortened: as §1

[3] = test system: Scirpus juncoides Roxb. var. ohwianus. T. Koyama; experiment: as above; settings: paddy field soil treatment; 1000 g of the active ingredient per hectare; wettable powder added dropwise on water surface; 21st day after treatment
Procedure, shortened: as §1

[4] = test system: Abutilon theophrasti medicus; experiment: Herbicidal effects in upland field soil treatment (Test Example 2); settings: 1000 g active ingredient per hectare, 21st day after treatment, criteria of Table 138
Procedure, shortened: (§2)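 Upland soil, seeds sown and covered → diluted WP sprayed uniformly onto soil surface (1000 L/ha; 1000 g a.i./ha) → greenhouse → effect scored day 21.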

Amaranthus viridis L. [5] = experiment: as above; settings: 1000 g active ingredient per hectare, 21st day after treatment, criteria of Table 138
Procedure, shortened: as §2

[6] = test system: Abutilon theophrasti medicus; experiment: Herbicidal effects in upland field foliar treatment (Test Example 3); settings: criteria of Table 138; for herbicidal effects on Abutilon theophrasti medicus: 1000 g of the active ingredient per hectare, 14th day after the treatment, wettable powder; for herbicidal effect (index) on Abutilon theophrasti medicus: 1000 g active ingredient per hectare, 14th day after treatment
Procedure, shortened: (§3)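 Seeds sown in upland soil, grown 2 weeks in greenhouse; whole-plant overhead spray of diluted wettable powder at 1000 g a.i./ha (1000 L/ha); kept in greenhouse; effects graded by criteria at 14 d.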

Amaranthus viridis L. [7] = experiment: as above; settings: criteria of Table 138; for herbicidal effects on Amaranthus viridis L.: 1000 g of the active ingredient per hectare, 14th day after the treatment, wettable powder; for herbicidal effect (index) on Amaranthus viridis L.: 1000 g active ingredient per hectare, 14th day after treatment
Procedure, shortened: as §3

[8] = test system: Echinochloa crus-galli (L.) P. Beauv. var. crus-galli; experiment: as above; settings: criteria of Table 138; for herbicidal effects on Echinochloa crus-galli (L.) P. Beauv. var. crus-galli: 1000 g of the active ingredient per hectare, 14th day after the treatment, wettable powder; for herbicidal effect (index) on Echinochloa crus-galli (L.) P. Beauv. var. crus-galli: 1000 g active ingredient per hectare, 14th day after treatment
Procedure, shortened: as §3

SMILES | Herbicidal effects index, Echinochloa oryzicola Vasing [1] | Herbicidal effects index, Monochoria vaginalis (Burm. f.) Presl var. plantaginea (Roxb.) Solms-Laub. [2] | Herbicidal effects index, Scirpus juncoides Roxb. var. ohwianus. T. Koyama [3] | herbicidal effect (index) on Abutilon theophrasti medicus [4] | herbicidal effect (index) on Amaranthus viridis L. (Amaranthus viridis L. [5]) | herbicidal effects on Abutilon theophrasti medicus [6] | herbicidal effects on Amaranthus viridis L. (Amaranthus viridis L. [7]) | herbicidal effects on Echinochloa crus-galli (L.) P. Beauv. var. crus-galli [8] | herbicidal effect (index) on Abutilon theophrasti medicus [6] | herbicidal effect (index) on Amaranthus viridis L. (Amaranthus viridis L. [7]) | herbicidal effect (index) on Echinochloa crus-galli (L.) P. Beauv. var. crus-galli [8]
O=C1CCCC(O)=C1C(=O)c1nc2cccnc2n(Cc2ccccc2Cl)c1=O [III-111] | 5 | 5 | 5 | 5 | 5 | 5 | 5 | 5 |  |  | 
COCC(C)n1c(=O)c(C(=O)C2=C(O)CCCC2=O)nc2cccnc21 (stereo not shown) [III-90] | 5 | 5 | 5 | 5 | 5 | 5 | 5 | 5 |  |  | 
O=C1CCCC(O)=C1C(=O)c1nc2c(F)cccc2n(-c2ccccc2)c1=O [II-233] | 5 | 5 | 5 | 5 | 5 | 5 | 5 | 5 |  |  | 
Cc1nnc(-n2c(=O)c(C(=O)C3=C(O)CCCC3=O)nc3ccccc32)s1 [I-270] | 5 | 5 | 5 | 5 | 5 |  |  |  | 5 | 5 | 5
COc1ccc(-n2c(=O)c(C(=O)C3=C(O)CCCC3=O)nc3cc(F)c(OC)cc32)cc1 [II-263] | 5 | 5 | 5 | 4 | 5 | 4 | 5 | 5 |  |  | 
COc1ccc(-n2c(=O)c(C(=O)C3=C(O)CC(C)(C)CC3=O)nc3ccccc32)cc1 [II-64] | 5 | 5 | 4 | 4 | 5 | 5 | 5 | 5 |  |  | 
Cc1ccc(-n2c(=O)c(C(=O)C3=C(O)CCCC3=O)nc3ccccc32)cc1 [II-21] | 5 | 5 | 5 | 5 | 5 | 5 | 5 | 5 |  |  | 
Cc1cc(-n2c(=O)c(C(=O)C3=C(O)C4CCC(C4)C3=O)nc3ccccc32)no1 (stereo not shown) [I-148] | 5 | 5 | 5 | 5 | 5 |  |  |  | 5 | 5 | 5
